Test [1] has as its system reporter viruses pseudotyped with HIV-1JR-FL envelope (U87-CD4-CCR5 cells). In words: microbe, parasite or virus in culture. The test is classed as cell-based. Conditions: for IC90: HIV-1 envelope JRFL, 1st inhibitor alone.
Test [2] relates to reporter viruses pseudotyped with HIV-1SF162 envelope (U87-CD4-CCR5 cells). The test can be described thus: HIV-1 pseudovirus assay, SF162 envelope. It is filed as cell-based. From the text: A self-inactivating (SIN) vector was derived from the pNL4-3ΔEnv-luciferase vector (Dragic et al. 1996) by deleting 507 basepairs in the U3 region of the 3′ long terminal repeat (LTR) so as to remove the TATA box and transcription factor binding sites. The human cytomegalovirus promoter was inserted upstream of the luciferase (luc) gene to enable expression of luciferase following integration.
Reporter viruses pseudotyped with HIV-1JR-FL or HIV-1SF162 envelopes were generated by cotransfection of 293T cells with the SIN vector and the appropriate pcDNA env-expressing vector as previously described (Dragic et al. 1996). […] Cultures were incubated for 72 h at 37° C. in DMEM containing 10% fetal bovine serum, […] puromycin, 0.3 mg/mL geneticin, antibiotics, and 0.5% DMSO. Luciferase activity (relative light units or RLU) was measured using. BrightGlo reagent (Promega, Madison, Wis.) according to the manufacturer's instructions.
Experimental design and data analysis were based on the combination index (CI) method (Chou et al. 1991; Chou et al. 1984). […] The mutually exclusive CI formula was used for combinations of CCR5 inhibitors, while the mutually non-exclusive formula was utilized for combinations of inhibitors to distinct targets (Chou et al. 1991). Each test was conducted 4-12 times. Synergy, additivity and antagonism are indicated by CI<1, CI=1 and CI>1, respectively.

Test [3] addresses T1, CCR5 on CEM.NKR-CCR5 cells (Homo sapiens, UniProt P51681).
T1 construct: host or cells: CEM.NKR-CCR5 (transduced human T cell leukemia line)
In words: Competition binding: inhibition of PRO 140-PE binding. Conditions: CEM.NKR-CCR5 cells, flow cytometry. On the procedure: Azide was added to block CCR5 internalization during the assay.
A general note: Flow cytometry measures light scatter and fluorescence of single cells or particles in a stream.

Test [4] concerns primary R5 HIV-1 isolates JR-FL and Case C 1/85 (CC1/85). In words: In vitro resistance selection and susceptibility testing on PBMC. It is filed as cell-based. Conditions: p24 ELISA. As to the method:
For susceptibility testing, viruses were cultured in vitro on stimulated PBMC. In the presence and absence of serially diluted drug, and the extent of viral replication was determined by p24 ELISA.
Background: ELISA stands for enzyme-linked immunosorbent assay.

The subject of another test is HIV-1. Conditions: dose-dependent, treatment period of 10-14 days; cited from earlier work.
A further test deals with CD4 (human) (UniProt P01730). In words: cell-based or functional assay.
Test [5] addresses CCR5 (CC-chemokine receptor 5) (human) (UniProt P51681). The test can be described thus: cell-based or functional assay.
The target in test [6] is HIV-1 JR-FL gp120 (HIV-1 strain JR-FL). The test can be described thus: cell-based or functional assay.
In test [7] the target is HIV-1 SF162 gp120 (HIV-1 strain SF162) (UniProt P19550). The test can be described thus: cell-based or functional assay.
Test [8] relates to HIV-1 Env-mediated fusion (HeLa-EnvJRFL and CEM NKR-CCR5 cells). In words: RET cell-cell fusion assay, combination testing (Part II, Example 1).
Description: Serial dilutions of small molecules were conducted in DMSO. Subsequent dilutions were conducted in medium to achieve a fmal DMSO concentration in the assay of 0.5%. Peptides and mAbs were diluted in PBS in the absence of DMSO.
Briefly, fluorescein octadecyl ester (F18; Molecular Probes, Eugene, Oreg.; 5 mg/ml in ethanol), was diluted 1:800 in DMEM labeling medium (DMEM; Invitrogen, Carlsbad, Calif.) with 10% fetal bovine serum (FBS; HyClone, Logan, Utah) and adjusted to an A506 of 0.34±10%. […] Both dyes were further diluted 2-fold by addition to cells in T75-cm^2 flasks. HeLa-EnvJRFL and CEM NKR-CCR5 cells were incubated overnight in F18- and R18-containing culture medium, respectively. The following day, medium from HeLa-EnvJRFL cells was removed and 10 ml of 0.5 mM EDTA was added and incubated at 37° C. for 5 min. EDTA was removed and the flask was returned to the incubator for another 5 min followed by striking of the flask to dislodge cells. […] Suspension CEM NKR-CCR5 cells were added directly to a separate 50-ml conical centrifuge tube. […] Ten μl of each cell type (15,000 cells) were seeded into wells of a 384-well plate. Inhibitor compounds were added immediately thereafter to bring the final well volume to 40 μl, and the plates were incubated for 4 h at 37° C. Compounds were tested individually and in combination at a fixed molar ratio or mass ratio over a range of serial dilutions.
The “% RET” was calculated according to the following formula after subtraction of background (blank) readings:
The “% Inhibition” was calculated according to the following formula: […]
IC50 values were generated for all combinations as described above. Combination Index (CI) and Dose Reduction (DR) values were calculated according to the following formulas:
Combinations with CI<1 are determined to be synergistic, whereas combinations with CI>1 are determined to be antagonistic. […]
In this assay, effector cells are labeled with the F18 dye and target cells with the R18 dye. […] Drug susceptibility is measured by adding serial concentrations of drugs to target cells prior to addition of effector cells.
Where [9] appears, read: Human immunodeficiency virus 1, U87/CD4/CCR5.

Read-outs that look alike come from different tables or passages of the source. A value given as a limit tells only on which side of the number the result lay.

T1 sequence (P51681 whole entry): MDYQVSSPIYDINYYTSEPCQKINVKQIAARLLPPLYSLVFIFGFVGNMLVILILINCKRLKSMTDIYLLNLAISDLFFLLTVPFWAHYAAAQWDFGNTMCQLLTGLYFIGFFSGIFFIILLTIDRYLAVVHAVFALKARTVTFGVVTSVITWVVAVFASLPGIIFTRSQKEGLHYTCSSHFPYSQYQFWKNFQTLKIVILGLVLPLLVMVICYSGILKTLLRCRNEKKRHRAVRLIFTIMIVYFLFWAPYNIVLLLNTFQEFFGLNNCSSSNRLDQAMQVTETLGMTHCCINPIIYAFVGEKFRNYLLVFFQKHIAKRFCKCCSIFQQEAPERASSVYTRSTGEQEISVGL

What is called IC90 is the concentration at which the effect reaches the 90% level. For orientation: IC50 means the point on the concentration scale where inhibition reaches its midpoint. As for `COC[C@@H](c1ccc(C(F)(F)F)cc1)N1CCN(C2(C)CCN(C(=O)c3c(C)ncnc3C)CC2)C[C@@H]1C` [SCH-D, 1-[(4,6-dimethyl-5-pyrimidinyl)carbonyl]-4-[4-[2-methoxy-1(R)-4-(trifluoromethyl)phenyl]ethyl-3(S)-methyl-1-piperazinyl]-4-methylpiperidine], the IC90 in [1] (read-out: IC90) is 44 nM; in [2] (HIV-1 envelope SF162, 1st inhibitor alone, read-out: IC90), 14 nM. Also, in [2] (HIV-1 envelope SF162, 1st inhibitor alone, read-out: IC50), the 50% inhibitory concentration (IC50) turned out to be 0.34 nM. Further, in [3], the “inhibition of PRO 140-PE binding (in words)” value is given as “modest levels of inhibition”. The “inhibition of PRO 140 escape mutants” value in test [4] was “efficiently inhibited”. Also, the “mean reductions in HIV-1 RNA levels” value with HIV-1 is about 1 log10.

In the test with CD4 (human), anti-CD4 mAb Leu-3A (antibody) showed an HIV-1 Env-mediated cell-cell fusion, RET assay of 500 ng/mL.

Take `CCO/N=C(\c1ccc(Br)cc1)C1CCN(C2(C)CCN(C(=O)c3c(C)cc[n+]([O-])c3C)CC2)CC1` [SCH-C]: the “mean reductions in HIV-1 RNA levels” value with HIV-1 is reported as about 1 log10.

With anti-CCR5 mAb 2D7 (antibody), in test [5], the IC50, HIV-1 reporter virus pseudotyped with JRFL envelope, U87-CD4-CCR5 cells came out at 8.8 nM; the IC50, HIV-1 reporter virus pseudotyped with SF162 envelope, U87-CD4-CCR5 cells was determined as 2.2 nM; the IC90, HIV-1 reporter virus pseudotyped with JRFL envelope, U87-CD4-CCR5 cells is over 200 nM; the IC90, HIV-1 reporter virus pseudotyped with SF162 envelope, U87-CD4-CCR5 cells was 74 nM.

Turning to “PRO 542 (CD4-IgG2) (from UniProt P01730 26-204; P01730 26-203) (Fc fusion)”, in test [6], the IC50, HIV-1 reporter virus pseudotyped with JRFL envelope, U87-CD4-CCR5 cells came to 0.19 nM and the IC90, HIV-1 reporter virus pseudotyped with JRFL envelope, U87-CD4-CCR5 cells was found to be 2.9 nM. Moreover, in test [7], the IC50, HIV-1 reporter virus pseudotyped with SF162 envelope, U87-CD4-CCR5 cells stood at 0.36 nM and the IC90, HIV-1 reporter virus pseudotyped with SF162 envelope, U87-CD4-CCR5 cells was 7.1 nM.

Regarding “RANTES: CC-chemokine, natural peptide ligand of CCR5”, in test [1] (compound alone (data not shown)), the “inhibition of HIV-1 pseudovirus entry” value is listed as “Neither TAK-779 nor RANTES mediated consistent, high-level inhibition”.

Turning to `Cc1nnc(C(C)C)n1C1CC2CCC(C1)N2CC[C@H](NC(=O)C1CCC(F)(F)CC1)c1ccccc1` (stereo partly shown) [UK-427,857, reference compound], the concentration for an effect of 90% (IC90) was found to be 46 nM in [1] and 13 nM in test [2] (setting [9]). Also, the IC50 in [1] (setting [9]) turned out to be 7.4 nM; in test [2] (setting [9]), 0.87 nM. Besides, the “Mean Dose Reduction (2D7)” value in [8] (2D7 in combination with the labelled inhibitor, 1:1 molar ratio) was 2.45 ± 0.12. The “Mean CI” value in test [8] (PRO 140 in combination with the labelled inhibitor, 1:1 molar ratio, Combination Index at IC50) is given as 0.59 ± 0.04. In addition, the “Mean Dose Reduction (Cpd in combination)” value in [8] (labelled inhibitor in combination with 2D7, 1:1 molar ratio) was 5.73 ± 0.54.

In the case of `CCCCN1C(=O)[C@@H]([C@H](O)C2CCCCC2)NC(=O)C12CCN(Cc1ccc(Oc3ccc(C(=O)O)cc3)cc1)CC2` [GW873140], in the test on HIV-1, the “mean reductions in HIV-1 RNA levels” value is recorded as about 1 log10.

The values above are taken from patent US20110135634A1, “METHODS OF INHIBITING INFECTION BY DIVERSE SUBTYPES OF DRUG-RESISTANT HIV-1” (priority 2007, published 2011).
